Laboratory results published in US20140162980A1, “NOVEL MICROBIOCIDAL DIOXIME ETHER DERIVATIVES” (SYNGENTA CROP PROTECTION LLC, priority 2010, published 2014).

Assays:
[1] = test system: Sclerotinia sclerotiorum; assay: Sclerotinia sclerotiorum / liquid culture (cottony rot); type: cell-based; details: PDB potato dextrose broth, 24° C., 3-4 days after application, read-out: control of Sclerotinia sclerotiorum (inhibition of growth, photometrically)
Protocol: Sclerotinia Sclerotiorum/Liquid Culture (Cottony Rot) Mycelia fragments of a newly grown liquid culture of the fungus are directly mixed into nutrient broth (PDB potato dextrose broth). After placing a (DMSO) solution of test compound into a microtiter plate at an application rate 200 ppm (96-well format) the nutrient broth containing the fungal material is added. The test plates are incubated at 24° C. and the inhibition of growth is determined photometrically 3-4 days after application.

[2] = test system: Phaeosphaeria nodorum (Septoria nodorum); assay: Phaeosphaeria nodorum (Septoria nodorum) / wheat / leaf disc preventative (glume blotch); type: in vivo; details: Parastagonospora nodorum, foliar, wheat leaf segments cv Kanzler, inoculated 2 days after application, assessed 5-7 days after application, read-out: control of Phaeosphaeria nodorum (percent disease control compared to untreated)
Protocol: Phaeosphaeria Nodorum (Septoria nodorum)/Wheat/Leaf Disc Preventative (Glume Blotch): Wheat leaf segments cv Kanzler were placed on agar in a 24-well plate and sprayed with formulated test compound diluted in water at an application rate of 200 ppm. The leaf disks are inoculated with a spore suspension of the fungus 2 days after application. The inoculated test leaf disks are incubated at 20° C. and 75% relative humidity under a light regime of 12/12 h (light/dark) in a climate cabinet and the activity of a compound is assessed as percent disease control compared to untreated when an appropriate level of disease damage appears in untreated check leaf disks (5-7 days after application).

[3] = test system: Puccinia recondita f. sp. tritici; assay: Puccinia recondita f. sp. tritici / wheat / leaf disc preventative (brown rust); type: in vivo; details: foliar, wheat leaf segments cv Kanzler, inoculated 1 day after application, assessed 7-9 days after application, read-out: control of Puccinia recondita f. sp. tritici, preventative (percent disease control compared to untreated)
Protocol: Puccinia Recondita f. Sp. Tritici/Wheat/Leaf Disc Preventative (Brown Rust): Wheat leaf segments cultivated variety (cv) Kanzler were placed on agar in 24-well plates and sprayed with formulated test compound diluted in water at an application rate of 200 ppm. The leaf disks were inoculated with a spore suspension of the fungus 1 day after application. The inoculated leaf segments were incubated at 19° C. and 75% relative humidity under a light regime of 12/12 h (light/dark) in a climate cabinet and the activity of a compound was assessed as percent disease control compared to untreated when an appropriate level of disease damage appears in untreated check leaf segments (7-9 days after application).

[4] = test system: Puccinia recondita f. sp. tritici; assay: Puccinia recondita f. sp. tritici / wheat / leaf disc curative (brown rust); type: in vivo; details: foliar, 200 ppm applied 1 day after inoculation, wheat leaf segments cv Kanzler, assessed 6-8 days after application, read-out: control of Puccinia recondita f. sp. tritici, curative (percent disease control compared to untreated)
Protocol: Puccinia Recondita f. Sp. Tritici/Wheat/Leaf Disc Curative (Brown Rust): Wheat leaf segments cv Kanzler were placed on agar in 24-well plates. The leaf segments were inoculated with a spore suspension of the fungus. The plates were stored in darkness at 19° C. and 75% relative humidity. The formulated test compound diluted in water was applied at an application rate of 200 ppm 1 day after inoculation.

[5] = test system: Blumeria graminis f. sp. tritici (Erysiphe graminis f. sp. tritici); assay: Blumeria graminis f. sp. tritici / wheat / leaf disc preventative (powdery mildew on wheat); type: in vivo; details: foliar, wheat leaf segments cv. Kanzler, inoculated 1 day after application, assessed 6-8 days after application, read-out: control of Blumeria graminis (percent disease control compared to untreated)
Protocol: Blumeria Graminis f. Sp. Tritici (Erysiphe Graminis f. Sp. Tritici)/Wheat/Leaf Disc Preventative (Powdery Mildew on Wheat):
Wheat leaf segments cv. Kanzler were placed on agar in a 24-well plate and sprayed with the formulated test compound diluted in water at an application rate of 200 ppm. The leaf disks were inoculated by shaking powdery mildew infected plants above the test plates 1 day after application. The inoculated leaf disks were incubated at 20° C. and 60% relative humidity under a light regime of 24 h darkness followed by 12 h/12 h (dark/light) in a climate chamber and the activity of a compound was assessed as percent disease control compared to untreated when an appropriate level of disease damage appears on untreated check leaf segments (6-8 days after application). The following compounds gave at least 80% control of Blumeria graminis: […]

[6] = test system: Pyrenophora teres; assay: Pyrenophora teres / barley / leaf disc preventative (net blotch); type: in vivo; details: foliar, barley leaf segments cv Hasso, inoculated two days after application, assessed 5-7 days after application, read-out: control of Pyrenophora teres (disease control compared to untreated)
Protocol: Pyrenophora Teres/Barley/Leaf Disc Preventative (Net Blotch): Barley leaf segments cv Hasso are placed on agar in a 24-well plate and sprayed with formulated test compound diluted in water at an application rate of 200 ppm. The leaf segments are inoculated with a spore suspension of the fungus two days after application of the test solution. The inoculated leaf segments are incubated at 20° C. and 65% relative humidity under a light regime of 12/12 h (light/dark) in a climate cabinet and the activity of a compound is assessed as disease control compared to untreated when an appropriate level of disease damage appears in untreated check leaf segments (5-7 days after application).

[7] = test system: Magnaporthe grisea (Pyricularia oryzae); assay: whole plant or invertebrate; type: in vivo; details: foliar, read-out: control of Magnaporthe grisea (percent disease control compared to untreated)
[8] = test system: Pythium ultimum; assay: Pythium ultimum / liquid culture (seedling damping off); type: cell-based; details: Globisporangium ultimum, PDB potato dextrose broth, 24° C., 2-3 days after application, read-out: control of Pythium ultimum (inhibition of growth, photometrically)
Protocol: Pythium Ultimum/Liquid Culture (Seedling Damping Off): Mycelia fragments and oospores of a newly grown liquid culture of the fungus were directly mixed into nutrient broth (PDB potato dextrose broth). After placing a DMSO solution of test compound into a 96 well microtiter plate at an application rate 200 ppm, the nutrient broth containing the fungal mycelia/spore mixture was added. The test plates were incubated at 24° C. and the inhibition of growth was determined photometrically 2-3 days after application.

[9] = test system: Botryotinia fuckeliana (Botrytis cinerea); assay: Botryotinia fuckeliana (Botrytis cinerea) / liquid culture (gray mould); type: cell-based; details: Vogels broth, 24° C., 3-4 days after application, read-out: control of Botryotinia fuckeliana (inhibition of growth, photometrically)
Protocol: Botryotinia Fuckeliana (Botrytis cinerea)/Liquid Culture (Gray Mould): Conidia of the fungus from cryogenic storage were directly mixed into nutrient broth (Vogels broth). After placing a DMSO solution of test compound into a 96-well microtiter plate at an application rate 200 ppm, the nutrient broth containing the fungal spores was added. The test plates were incubated at 24° C. and the inhibition of growth was determined photometrically 3-4 days after application.

[10] = test system: Phytophthora infestans; assay: whole plant or invertebrate; type: in vivo; details: in Solanum lycopersicum, foliar, read-out: control of Phytophthora infestans (percent disease control compared to untreated)
[11] = test system: Alternaria solani; assay: Alternaria solani / tomato / leaf disc (early blight); type: in vivo; details: foliar, tomato leaf disks cv. Baby, inoculated 2 days after application, assessed 5-7 days after application, read-out: control of Alternaria solani (percent disease control compared to untreated)
Protocol: Alternaria Solani/Tomato/Leaf Disc (Early Blight): Tomato leaf disks cv. Baby are placed on agar in multiwell plates (24-well format) and sprayed with the formulated test compound diluted in water at an application rate of 200 ppm. The leaf disks are inoculated with a spore suspension of the fungus 2 days after application. The inoculated leaf disks are incubated at 23° C./21° C.

[12] = test system: Thanatephorus cucumeris (Rhizoctonia solani); assay: Thanatephorus cucumeris (Rhizoctonia solani) / liquid culture (foot rot, damping-off); type: cell-based; details: PDB potato dextrose broth, 24° C., 3-4 days after application, read-out: control of Thanatephorus cucumeris (inhibition of growth, photometrically)
Protocol: Thanatephorus Cucumeris (Rhizoctonia solani)/Liquid Culture (Foot Rot, Damping-Off): Mycelia fragments of a newly grown liquid culture of the fungus are directly mixed into nutrient broth (PDB potato dextrose broth). After placing a DMSO solution of the test compounds into a 96-well microtiter plate at an application rate 200 ppm, the nutrient broth containing the fungal material was added. The test plates were incubated at 24° C. and the inhibition of growth was determined photometrically 3-4 days after application.

[13] = test system: Plasmopara viticola; assay: whole plant or invertebrate; type: in vivo; details: foliar, read-out: control of Plasmopara viticola (percent disease control compared to untreated)

Cc1ccc2c(n1)/C(=N/OCCCO/N=C1\CCCc3c(C(F)F)cc(C)nc31)CCC2 [P.46]
≥ 80%: inhibition at 200 ppm [1] | pest or weed control at 200 ppm [2] | pest or weed control at 200 ppm [3] | pest or weed control at 200 ppm [4] | pest or weed control at 200 ppm [5] | pest or weed control at 200 ppm [6] | pest or weed control at 200 ppm [7] | inhibition at 200 ppm [8] | inhibition at 200 ppm [9]

Cc1ccc2c(n1)/C(=N/OCCCO/N=C1\CCCc3ccc(C)nc31)CCC2 [P.05]
≥ 80%: pest or weed control at 200 ppm [2] | pest or weed control at 200 ppm [3] | pest or weed control at 200 ppm [4] | pest or weed control at 200 ppm [5] | pest or weed control at 200 ppm [10] | pest or weed control at 200 ppm [6] | inhibition at 200 ppm [8] | inhibition at 200 ppm [9] | pest or weed control at 200 ppm [11]

Cc1ccc2c(n1)/C(=N/OC[Si](C)(C)CO/N=C1\CCCc3ccc(C)nc31)CCC2 [P.20]
≥ 80%: pest or weed control at 200 ppm [2] | inhibition at 200 ppm [12] | pest or weed control at 200 ppm [3] | pest or weed control at 200 ppm [4] | pest or weed control at 200 ppm [5] | pest or weed control at 200 ppm [6] | inhibition at 200 ppm [8] | inhibition at 200 ppm [9] | pest or weed control at 200 ppm [11]

Cc1ccc2c(n1)/C(=N/OCCCO/N=C1\CCCc3c(C)cc(C)nc31)CCC2 [P.30]
≥ 80%: pest or weed control at 200 ppm [2] | inhibition at 200 ppm [12] | pest or weed control at 200 ppm [3] | pest or weed control at 200 ppm [4] | pest or weed control at 200 ppm [13] | pest or weed control at 200 ppm [5] | pest or weed control at 200 ppm [10] | pest or weed control at 200 ppm [6] | pest or weed control at 200 ppm [7] | inhibition at 200 ppm [8] | inhibition at 200 ppm [9] | pest or weed control at 200 ppm [11]

Cc1ccc2c(n1)/C(=N/OCCCO/N=C1\CCCc3c(-c4ccccc4)cc(C)nc31)CCC2 [P.31]
≥ 80%: pest or weed control at 200 ppm [2] | inhibition at 200 ppm [12] | pest or weed control at 200 ppm [3] | pest or weed control at 200 ppm [4] | pest or weed control at 200 ppm [13] | pest or weed control at 200 ppm [5] | pest or weed control at 200 ppm [6] | inhibition at 200 ppm [8] | inhibition at 200 ppm [9] | pest or weed control at 200 ppm [11]

Cc1ccc2c(n1)/C(=N/OCC(C)(C)CO/N=C1\CCCc3ccc(C)nc31)CCC2 [P.02]
≥ 80%: pest or weed control at 200 ppm [2] | inhibition at 200 ppm [12] | pest or weed control at 200 ppm [3] | pest or weed control at 200 ppm [4] | pest or weed control at 200 ppm [5] | pest or weed control at 200 ppm [10] | pest or weed control at 200 ppm [6] | inhibition at 200 ppm [8] | inhibition at 200 ppm [9]

CCC(CO/N=C1\CCCc2ccc(C)nc21)CO/N=C1\CCCc2ccc(C)nc21 [P.10]
≥ 80%: pest or weed control at 200 ppm [2] | pest or weed control at 200 ppm [3] | pest or weed control at 200 ppm [4] | pest or weed control at 200 ppm [13] | pest or weed control at 200 ppm [5] | pest or weed control at 200 ppm [10] | pest or weed control at 200 ppm [6] | inhibition at 200 ppm [8] | inhibition at 200 ppm [9] | pest or weed control at 200 ppm [11]

CCOc1cc(C)nc2c1CCC/C2=N\OCCCO/N=C1\CCCc2ccc(C)nc21 [P.32]
≥ 80%: pest or weed control at 200 ppm [2] | pest or weed control at 200 ppm [3] | pest or weed control at 200 ppm [13] | pest or weed control at 200 ppm [5] | pest or weed control at 200 ppm [10] | pest or weed control at 200 ppm [6] | pest or weed control at 200 ppm [7] | inhibition at 200 ppm [9]

C=C(CO/N=C1\CCCc2ccc(C)nc21)CO/N=C1\CCCc2ccc(C)nc21 [P.07]
≥ 80%: pest or weed control at 200 ppm [2] | pest or weed control at 200 ppm [3] | pest or weed control at 200 ppm [4] | pest or weed control at 200 ppm [5] | pest or weed control at 200 ppm [6] | inhibition at 200 ppm [8] | inhibition at 200 ppm [9] | pest or weed control at 200 ppm [11]

Cc1ccc2c(n1)/C(=N/OCC(C)CO/N=C1\CCCc3ccc(C)nc31)CCC2 (stereo not shown) [P.09]
≥ 80%: pest or weed control at 200 ppm [2] | pest or weed control at 200 ppm [3] | pest or weed control at 200 ppm [4] | pest or weed control at 200 ppm [5] | pest or weed control at 200 ppm [10] | pest or weed control at 200 ppm [6] | inhibition at 200 ppm [8] | inhibition at 200 ppm [9] | pest or weed control at 200 ppm [11]

Cc1ccc2c(n1)/C(=N/OCC(C)(C)CO/N=C1\CCCc3cccnc31)CCC2 [P.23]
≥ 80%: pest or weed control at 200 ppm [2] | pest or weed control at 200 ppm [3] | pest or weed control at 200 ppm [4] | pest or weed control at 200 ppm [5] | pest or weed control at 200 ppm [10] | pest or weed control at 200 ppm [6] | inhibition at 200 ppm [8]
